Measured values taken from the supplement of paper PMC5412046.
Counter-ions that a name gives are not always drawn.

Key:
SB.mhdgc-1 = assay: AC50 for growth inhibition (viability) (log10 M); higher = less potent; settings: SB.mhdgc-1 (hereditary c.1380delA CDH1 gastric cancer)
Outline: (§1)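 Gastric cancer cells derived from patients with hereditary or sporadic disease were seeded at 500 cells in 5 μL medium per 1536 well. A pintool delivered 23 nL of compound in DMSO, as 11 threefold dilutions from a final 46 μM. After 48 h, CellTiter-Glo was added for 30 min at room temperature and luminescence was read on a ViewLux. The log half-maximal activity concentration was taken from a four-parameter fit of viability normalised to DMSO, using only high-quality curve classes.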

SB.msgc-1 = assay: as above; settings: SB.msgc-1 (sporadic gastric cancer)
Outline: as §1

Structure (SMILES) | AC50 for growth inhibition (log10 M) (SB.mhdgc-1) | AC50 for growth inhibition (log10 M) (SB.msgc-1)
CC1(C)O[C@@H]2C[C@H]3[C@@H]4C[C@H](F)C5=CC(=O)C=C[C@]5(C)[C@@]4(F)[C@@H](O)C[C@]3(C)[C@]2(C(=O)CO)O1 [Fluocinolone acetonide] | -5.33 | -4.93
F\C1=C\NC(=O)NC1=O [Fluorouracil] | -6.43 | -5.28
OCCN1CCN(CCCN2c3ccccc3Sc3ccc(C(F)(F)F)cc32)CC1 [Fluphenazine hydrochloride] | -4.83 | -4.78
CC(C)C(=O)Nc1ccc([N+](=O)[O-])c(C(F)(F)F)c1 [Flutamide] | -5.83 | -5.63
COCCCC/C(=N\OCCN)c1ccc(C(F)(F)F)cc1 [Fluvoxamine maleate] | -4.63 | -4.88
Cc1cn[nH]c1 [Fomepizole] | -6.68 | -7.18
COc1cc2c(Oc3ccc(NC(=O)C4(C(=O)Nc5ccc(F)cc5)CC4)cc3F)ccnc2cc1OCCCN1CCOCC1 [Foretinib] | -4.83 | -4.73
COc1cc(Nc2ncc(F)c(Nc3ccc4c(n3)N(COP(=O)(O)O)C(=O)C(C)(C)O4)n2)cc(OC)c1OC [Fostamatinib disodium] | -5.33 | -5.93
C[C@@H]1O[C@@H](O[C@H]2C[C@@H](O)[C@]3(CO)[C@H]4[C@H](O)C[C@]5(C)[C@@H](C6=CC(=O)OC6)CC[C@]5(O)[C@@H]4CC[C@]3(O)C2)[C@H](O)[C@H](O)[C@H]1O [G-Strophanthin] | -6.98 | -7.38
Cn1c2ccccc2c2c3c(c4c5ccccc5n(CCC#N)c4c21)CNC3=O [G?-6976] | -5.08 | -5.23
COC1=CC=C2[N](CCCN(C)C)C=C(C2=C1)C/3=C(/C(=O)NC3=O)C4=C[NH]C5=C4C=CC=C5 [G?-6983] | -6.78 | -4.58
CC[C@@H](C)[C@H](NC(=O)[C@H](CC1CCCCC1)NC(=O)c1ccno1)C(=O)N1CCC2(CCc3ccccc32)CC1 [GB 83] | -4.88 | -4.98
CC(C)NC[C@@H](C(=O)N1CCN(c2ncnc3c2[C@H](C)C[C@H]3O)CC1)c1ccc(Cl)cc1 [GDC-0068] | -6.48 | -5.13
CCNC(=O)Nc1ccc(-c2nc3c(c(N4CCOC[C@@H]4C)n2)CCN(C2COC2)C3)cc1 [GDC-0349] | -5.28 | -4.83
C[S+](=O)([O-])N1CCN(Cc2cc3nc(-c4cccc5[nH]ncc45)nc(N4CCOCC4)c3s2)CC1 [GDC-0941] | -7.23 | -6.13
CNC(=O)[C@H](CC/1=C/N=C\2/C=C\C\C=C12)NC(=O)[C@H](CC(C)C)CC(=O)NO [GM-6001] | -6.68 | -5.58
N#C/N=C(\NCCCCCCOc1ccc(Cl)cc1)Nc1ccncc1 [GMX-1778] | -8.08 | -6.88
Cc1nc(N)ncc1-c1nc(N2CCOCC2)c2sc(C(C)(C)O)cc2n1 [GNE-490] | -6.38 | -7.43
CC(C)(O)c1cc2nc(-c3cnc(N)nc3)nc(N3CCOCC3)c2s1 [GNE-493] | -6.98 | -6.88
Cc1ccc(NC(=O)Nc2cc(C(F)(F)F)ccc2F)cc1Nc1ccc2c(c1)NC(=O)/C2=C\c1ccc[nH]1 [GNF-5837] | -4.83 | -4.73
O=C/1NC(=O)C(=C1C2=CN=C3C=CC=C[N]23)/C4=C[N]5CCN(CC6=C5C4=CC=C6)C(=O)N7CCOCC7 [GSK3 Inhibitor] | -5.93 | -4.63
CC[C@H](C)[N]1C=C(C)C2=C1C=C(C=C2C(=O)NC\C3=C(C)\C=C(\C)NC3=O)C4=CC=C(N=C4)N5CCNCC5 [GSK126] | -5.03 | -4.98
CC\1=C(C(\N=C(/N1)C2=CC(=NC=C2)Cl)C3=C(F)C=C(Cl)C=C3)/C(=O)NC4=C(F)C=C5[NH]N=CC5=C4 (configuration not stated) [GSK-25] | -5.08 | -4.63
O=C1NC(=O)/C(=C/c2ccc3nccc(-c4ccncc4)c3c2)S1 [GSK-615] | -6.33 | -6.03
O=C(O)Cc1cccc(OCCCN(Cc2cccc(C(F)(F)F)c2Cl)CC(c2ccccc2)c2ccccc2)c1 [GSK-3965] | -4.78 | -4.68
CC(C)c1onc(-c2c(Cl)cccc2Cl)c1COc1ccc(/C=C/c2cccc(C(=O)O)c2)c(Cl)c1 [GW-4064X] | -5.33 | -4.73

Structure (SMILES) | AC50 for growth inhibition (log10 M) (SB.mhdgc-1) | AC50 for growth inhibition (log10 M) (SB.msgc-1)
CCC(=O)NC[C@H](Cc1ccc(OCCc2nc(-c3ccccc3)oc2C)cc1)N/C(C)=C\C(=O)c1ccc(C(F)(F)F)cc1 [GW-6471] | -5.48 | -4.73
C[C@]\12CC[C@H](O)CC1=C/CC3C2CC[C@@]\4(C)C3C\C=C4[N]5C=NC6=C5C=CC=C6 (some centres not stated) [Galeterone] | -4.68 | -4.68
Cc1cc(Nc2cc(CN3CCOCC3)c3nc(C)c(Cc4ccc(Cl)cc4F)n3n2)[nH]n1 [Gandotinib] | -4.68 | -4.73
CC(C)C1=C(O)C=C(O)C(=C1)C/2=N/NC(=O)N2C3=CC4=C(C=C3)[N](C)C=C4 [Ganetespib] | -7.33 | -6.93
COc1cc2ncnc(Nc3ccc(F)c(Cl)c3)c2cc1OCCCN1CCOCC1 [Gefitinib] | -5.57 | -6.67
COC1=C2C[C@@H](C)C[C@H](OC)[C@H](O)[C@@H](C)/C=C(\C)[C@H](OC(N)=O)[C@@H](OC)/C=C/C=C(\C)C(=O)NC(=CC1=O)C2=O [Geldanamycin] | -6.58 | -6.43
Cl.Nc1ccn([C@@H]2O[C@H](CO)[C@@H](O)C2(F)F)c(=O)n1 [Gemcitabine] | -7.23 | -7.53
Cc1ccc(C)c(OCCCC(C)(C)C(=O)O)c1 [Gemfibrozil] | -4.78 | -5.13
OC[C@H]1OC(OC2=CC3=C(C(=C2)O)C(=O)\C(=C/O3)C4=CC=C(O)C=C4)[C@H](O)[C@@H](O)[C@@H]1O (some centres not stated) [Genistin] | -5.78 | -6.33
CCN(CC)Cc1ccc2cc(COC(=O)Nc3ccc(C(=O)NO)cc3)ccc2c1 [Givinostat hydrochloride] | -5.38 | -6.03
O=[S+]([O-])(NCCNC/C=C/c1ccc(Br)cc1)c1cccc2cnccc12 [H-89] | -4.88 | -4.73
CCOC(=O)C(C#N)C\1C2=CC(=CC=C2O\C(=C1C(=O)OCC)N)Br (configuration not stated) [HA-14-1] | -4.68 | -4.63
CCCCN(CCCC)CCC(O)c1cc2c(Cl)cc(Cl)cc2c2cc(C(F)(F)F)ccc12 (configuration not stated) [Halofantrine] | -4.68 | -4.73
CC[S+](=O)([O-])Nc1ccc2c(c1)/C(=C(/Nc1ccc(CN3CCCCC3)cc1)c1ccccc1)C(=O)N2 [Hesperadin] | -5.18 | -5.23
CCC(c1ccc(O)cc1)C(CC)c1ccc(O)cc1 (configuration not stated) [Hexestrol] | -5.88 | -5.88
CNC1CCC(N(Cc2cccc(-c3ccncc3)c2)C(=O)c2sc3c(F)ccc(F)c3c2Cl)CC1 (configuration not stated) [Hh-Ag1.5] | -4.73 | -4.83
NC(=O)NO [Hydroxyurea] | -6.08 | -6.88
COc1cc(O)c2c(c1)C1OC1C[C@H](O)[C@H](O)C(=O)/C=C\C[C@H](C)OC2=O (some centres not stated) [Hypothemycin] | -5.03 | -4.83
COc1cc2c(cc1-c1c(C)noc1C)ncc1[nH]c(=O)n([C@H](C)c3ccccn3)c12 [I-BET151] | -4.93 | -5.28
CCNC(=O)C[C@@H]1\N=C(C2=CC=C(Cl)C=C2)/C3=C(C=CC(=C3)OC)[N]4C(=NN=C14)C [I-BET762] | -6.08 | -5.63
O=C1[C@H](Cc2ccc(O)cc2)N2C(=O)CCN(C(=O)NCc3ccccc3)[C@H]2CN1Cc1cccc2ccccc12 [ICG-001] | -4.83 | -4.88
CCCCc1ccc(N[S+](=O)([O-])c2ccc(C)c(C(=O)N3CCN(c4cccc(C)c4C)CC3)c2)cc1 [IDH-001] | -4.83 | -4.68
O=C(c1ccc(Nc2nccc(-c3cc4ccccc4s3)n2)cc1)N1CCC(N2CCCC2)CC1 [IKK16] | -5.08 | -4.88
N#Cc1c(C2CCNCC2)cc(-c2c(O)cccc2OCC2CC2)nc1N [IKK-2 Inhibitor VIII] | -4.88 | -4.73
O=C(Nc1cc(C(F)(F)F)cc(C(F)(F)F)c1)c1cc(Cl)ccc1O [IMD-0354] | -5.78 | -5.73
